Test results: BigSolDB 2.1

CC1=NN(c2ccc(C)cc2)C(=O)C1
Settings | solubility (mole fraction)
in 1,4-dioxane, 283.15 K | 0.0337
in 1,4-dioxane, 285.65 K | 0.0367
in 1,4-dioxane, 288.15 K | 0.0399
in 1,4-dioxane, 290.65 K | 0.0432
in 1,4-dioxane, 293.15 K | 0.047
in 1,4-dioxane, 295.65 K | 0.0507
in 1,4-dioxane, 298.15 K | 0.0549
in 1,4-dioxane, 300.65 K | 0.0591
in 1,4-dioxane, 303.15 K | 0.0638
in 1,4-dioxane, 305.65 K | 0.0683
in 1,4-dioxane, 308.15 K | 0.0737
in 1,4-dioxane, 310.65 K | 0.0791
in 1,4-dioxane, 313.15 K | 0.0849
in acetonitrile, 278.15 K | 0.00534
in acetonitrile, 280.65 K | 0.00596
in acetonitrile, 283.15 K | 0.00668
in acetonitrile, 285.65 K | 0.00746
in acetonitrile, 288.15 K | 0.0083
in acetonitrile, 290.65 K | 0.00927
in acetonitrile, 293.15 K | 0.0104
in acetonitrile, 295.65 K | 0.0115
in acetonitrile, 298.15 K | 0.0128
in acetonitrile, 300.65 K | 0.0142
in acetonitrile, 303.15 K | 0.0157
in acetonitrile, 305.65 K | 0.0173
in acetonitrile, 308.15 K | 0.0192
in acetonitrile, 310.65 K | 0.0213
in acetonitrile, 313.15 K | 0.0235
in cyclohexane, 283.15 K | 0.000488
in cyclohexane, 285.65 K | 0.000558
in cyclohexane, 288.15 K | 0.000626
in cyclohexane, 290.65 K | 0.000714
in cyclohexane, 293.15 K | 0.000802
in cyclohexane, 295.65 K | 0.000902
in cyclohexane, 298.15 K | 0.00102
in cyclohexane, 300.65 K | 0.00114
in cyclohexane, 303.15 K | 0.00128
in cyclohexane, 305.65 K | 0.00142
in cyclohexane, 308.15 K | 0.00161
in cyclohexane, 310.65 K | 0.00179
in cyclohexane, 313.15 K | 0.002
in ethanol, 278.15 K | 0.0146
in ethanol, 280.65 K | 0.0161
in ethanol, 283.15 K | 0.0176
in ethanol, 285.65 K | 0.0191
in ethanol, 288.15 K | 0.0209
in ethanol, 290.65 K | 0.0229
in ethanol, 293.15 K | 0.0248
in ethanol, 295.65 K | 0.027
in ethanol, 298.15 K | 0.0294
in ethanol, 300.65 K | 0.0319
in ethanol, 303.15 K | 0.0345
in ethanol, 305.65 K | 0.0372
in ethanol, 308.15 K | 0.0403
in ethanol, 310.65 K | 0.0436
in ethanol, 313.15 K | 0.0471
in ethyl acetate, 278.15 K | 0.0171
in ethyl acetate, 280.65 K | 0.0188
in ethyl acetate, 283.15 K | 0.0207
in ethyl acetate, 285.65 K | 0.0226
in ethyl acetate, 288.15 K | 0.0247
in ethyl acetate, 290.65 K | 0.0271
in ethyl acetate, 293.15 K | 0.0294
in ethyl acetate, 295.65 K | 0.032
in ethyl acetate, 298.15 K | 0.0349
in ethyl acetate, 300.65 K | 0.0378
in ethyl acetate, 303.15 K | 0.041
in ethyl acetate, 305.65 K | 0.0444
in ethyl acetate, 308.15 K | 0.0481
in ethyl acetate, 310.65 K | 0.052
in ethyl acetate, 313.15 K | 0.0562
in ethylbenzene, 278.15 K | 0.0109
in ethylbenzene, 280.65 K | 0.012
in ethylbenzene, 283.15 K | 0.0132
in ethylbenzene, 285.65 K | 0.0146
in ethylbenzene, 288.15 K | 0.016
in ethylbenzene, 290.65 K | 0.0175
in ethylbenzene, 293.15 K | 0.0193
in ethylbenzene, 295.65 K | 0.0211
in ethylbenzene, 298.15 K | 0.0231
in ethylbenzene, 300.65 K | 0.0253
in ethylbenzene, 303.15 K | 0.0276
in ethylbenzene, 305.65 K | 0.0301
in ethylbenzene, 308.15 K | 0.0327
in ethylbenzene, 310.65 K | 0.0356
in ethylbenzene, 313.15 K | 0.0387
in isopentanol, 278.15 K | 0.0303
in isopentanol, 280.65 K | 0.0335
in isopentanol, 283.15 K | 0.037
in isopentanol, 285.65 K | 0.041
in isopentanol, 288.15 K | 0.0449
in isopentanol, 290.65 K | 0.0492
in isopentanol, 293.15 K | 0.0542
in isopentanol, 295.65 K | 0.0593
in isopentanol, 298.15 K | 0.0646
in isopentanol, 300.65 K | 0.0705
in isopentanol, 303.15 K | 0.0769
in isopentanol, 305.65 K | 0.0835
in isopentanol, 308.15 K | 0.0906
in isopentanol, 310.65 K | 0.0982
in isopentanol, 313.15 K | 0.106
in isopropanol, 278.15 K | 0.0116
in isopropanol, 280.65 K | 0.0127
in isopropanol, 283.15 K | 0.014
in isopropanol, 285.65 K | 0.0153
in isopropanol, 288.15 K | 0.0168
in isopropanol, 290.65 K | 0.0184
in isopropanol, 293.15 K | 0.02
in isopropanol, 295.65 K | 0.0218
in isopropanol, 298.15 K | 0.0238
in isopropanol, 300.65 K | 0.0259
in isopropanol, 303.15 K | 0.0281
in isopropanol, 305.65 K | 0.0305
in isopropanol, 308.15 K | 0.033
in isopropanol, 310.65 K | 0.0358
in isopropanol, 313.15 K | 0.0387
in methanol, 278.15 K | 0.0152
in methanol, 280.65 K | 0.0168
in methanol, 283.15 K | 0.0183
in methanol, 285.65 K | 0.02
in methanol, 288.15 K | 0.0221
in methanol, 290.65 K | 0.024
in methanol, 293.15 K | 0.0262
in methanol, 295.65 K | 0.0287
in methanol, 298.15 K | 0.0312
in methanol, 300.65 K | 0.034
in methanol, 303.15 K | 0.0367
in methanol, 305.65 K | 0.0398
in methanol, 308.15 K | 0.0432
in methanol, 310.65 K | 0.0468
in methanol, 313.15 K | 0.0506
in n-butanol, 278.15 K | 0.0188
in n-butanol, 280.65 K | 0.0206
in n-butanol, 283.15 K | 0.0226
in n-butanol, 285.65 K | 0.0247
in n-butanol, 288.15 K | 0.0271
in n-butanol, 290.65 K | 0.0294
in n-butanol, 293.15 K | 0.032
in n-butanol, 295.65 K | 0.0349
in n-butanol, 298.15 K | 0.0377
in n-butanol, 300.65 K | 0.041
in n-butanol, 303.15 K | 0.0444
in n-butanol, 308.15 K | 0.0518
in n-butanol, 310.65 K | 0.056
in n-butanol, 313.15 K | 0.0603
in n-propanol, 278.15 K | 0.0177
in n-propanol, 280.65 K | 0.0194
in n-propanol, 283.15 K | 0.0213
in n-propanol, 285.65 K | 0.0232
in n-propanol, 288.15 K | 0.0254
in n-propanol, 290.65 K | 0.0276
in n-propanol, 293.15 K | 0.0301
in n-propanol, 295.65 K | 0.0326
in n-propanol, 298.15 K | 0.0353
in n-propanol, 300.65 K | 0.0384
in n-propanol, 303.15 K | 0.0414
in n-propanol, 305.65 K | 0.0448
in n-propanol, 308.15 K | 0.0483
in n-propanol, 310.65 K | 0.0522
in n-propanol, 313.15 K | 0.0561
in toluene, 278.15 K | 0.00985
in toluene, 280.65 K | 0.0109
in toluene, 283.15 K | 0.012
in toluene, 285.65 K | 0.0133
in toluene, 288.15 K | 0.0147
in toluene, 290.65 K | 0.0161
in toluene, 293.15 K | 0.0176
in toluene, 295.65 K | 0.0193
in toluene, 298.15 K | 0.021
in toluene, 300.65 K | 0.023
in toluene, 303.15 K | 0.025
in toluene, 305.65 K | 0.0273
in toluene, 308.15 K | 0.0298
in toluene, 310.65 K | 0.0323
in toluene, 313.15 K | 0.0351
